Test results published in patent publication US10675317B2, “Use of ginseng extract, ginsenoside and ginsenoside derivative in the preparation of medicine or health care product for treating cytomegalovirus infection disorders” (priority 2015, dated 2020).
Like-named read-outs stand apart in the source and are kept apart here.

What was measured:
Assay type in all cases: in vivo, Kunming mice
HCMV infected mice [1] = experiment: IL-2 level in serum of HCMV infected mice (ELISA kit); settings: for IL-2 level compared with the positive drug control group (in words): ganciclovir 45.5 mg/kg/d as comparator; for IL-2 concentration: 21 days
Experimental: (§1) The mice were injected with HCMV10^−3 (0.1 ml/mouse) through the caudal vein of mouse tails; 0.9% normal saline is injected to the normal control group, 0.1 ml/piece; and intragastric administration is started according to the determined dosage on the second day of infection, with 21 days of medication.
Selecting six mice in each group randomly for sampling, 40 min later after the last administration, picking eyeballs to take blood, and collecting the blood by a centrifugal tube Performing high-speed centrifugation for 5 min at 3000 r/min after blood coagulation, and taking the serum. The IL-2 in the serum is measured according to the manual of an ELISA kit.
1L-2, namely interleukin-2, is also named T cell growth factor (TCGF), is a cell factor with wide biological activity, which is generated by activated CD4+Th1 cells, and can promote the proliferation of Th0 and CTL, thus being an important factor for regulating and controlling immune responses.

HCMV infected mice [2] = experiment: Spleen and thymus gland indexes of HCMV infected mice; settings: for Effect on weight of the immune organs of HCMV infected mice (in words): thymus glands and spleens; for Effect on weight of the immune organs of HCMV infected mice (in words) / Spleen indexes / Thymus gland indexes: day 21
Experimental: as §1
(§2) During the experiment. Animals were weighed and the thymus and spleen were weighed on the 21st day of administration, and their indices (thymus index, spleen index, weight of thymus and spleen organs per 10 g body weight (mg)) were measured.
Thymus glands and spleens are important immune organs, with the organ indexes reflecting the strength of immune functions of organisms to a certain degree. The thymus glands have the main functions of generating T-lymphocytes and secreting thymosin, and mainly take part in cellular immunity; and abundant lymphocytes and macrophages are contained in the spleens. The weight of the thymus glands and the spleens is related to functions thereof as well as the quantity of immune cells therein, and the height depends on the proliferation degree of the lymphocytes therein.

HCMV infected mice [3] = settings: for Level of serum hemolysin antibodies compared with the positive drug control group (in words): HCMV infected mice, ganciclovir 45.5 mg/kg/d as comparator; for Hemolysin (OD value): serum of HCMV infected mice, 540 nm, 21 days
Experimental: as §1
40 min later after the last administration, picking eyeballs to take blood, collecting serum, diluting the serum for 100 times with normal saline, uniformly mixing 1 mL of the diluted serum, 0.5 mL of 5% chicken erythrocyte suspension and 0.5 mL of 10% complement (guinea pig serum), incubating for 30 min In 37° C. incubator, setting 0° C. refrigerator for 30 min to stop the reaction. Centrifugating, taking the supernatant, and then measuring the optical density (OD value) at 540 nm by spectrophotometer.

HCMV infected mice [4] = experiment: Survival rate and weight of HCMV infected mice; settings: for Toxic symptoms, death and weight growth of treated HCMV infected mice (in words): 21 days of intragastric administration, compared with model group; for Average animal weight (g) Termination of treatment: HCMV infected mice; for Average animal weight (g) Termination of treatment / Animal number (n) Termination of treatment: 21 days; for Animal number (n) Termination of treatment: surviving of 10 HCMV infected mice
Experimental: 1.3 Virus standard strain HCMVADI69 and the proliferation of species are introduced in October 1999 from Virus Seed Room of Virus Institute in Chinese Academy of Preventive Medicine. […] HEL cultural supernatant reaching +++−++++ in the cell lesions is discarded and lightly washed for 3 times by PBS; double distilled water is added; freeze-thawing is performed for 3 times at −20° C.; vigorous blowing and beating are performed; 10,000 r/min centrifugation is performed at 4° C. for 20 min; and the supernatant is collected to obtain the standard virus strain.
as §1, §2
Recording the number of dead animals in the experimental process.
All the mice are subjected to the medicines continuously for 21 days in the whole experimental process.

[5] = high-dosage group 0.3 mg/kg/d intragastric
[6] = low-dosage group 0.012 mg/kg/d intragastric
[7] = medium-dosage group 0.06 mg/kg/d intragastric
[8] = HCMV infected mice, high-dosage group 0.3 mg/kg/d intragastric
[9] = HCMV infected mice, low-dosage group 0.012 mg/kg/d intragastric
[10] = HCMV infected mice, medium-dosage group 0.06 mg/kg/d intragastric

Molecule	IL-2 level compared with the model group (in words) (HCMV infected mice [1])	IL-2 level compared with the positive drug control group (in words) (HCMV infected mice [1])	IL-2 concentration (HCMV infected mice [1]; [5])	IL-2 concentration (HCMV infected mice [1]; [6])	IL-2 concentration (HCMV infected mice [1]; [7])	Effect on weight of the immune organs of HCMV infected mice (in words) (HCMV infected mice [2])	Level of serum hemolysin antibodies compared with the positive drug control group (in words) (HCMV infected mice [3])	Hemolysin (OD value) (HCMV infected mice [3]; [5])	Hemolysin (OD value) (HCMV infected mice [3]; [6])	Hemolysin (OD value) (HCMV infected mice [3]; [7])	Toxic symptoms, death and weight growth of treated HCMV infected mice (in words) (HCMV infected mice [4])	Average animal weight (g) Termination of treatment (HCMV infected mice [4]; [5])	Average animal weight (g) Termination of treatment (HCMV infected mice [4]; [6])	Average animal weight (g) Termination of treatment (HCMV infected mice [4]; [7])	Animal number (n) Termination of treatment (HCMV infected mice [4]; [5])	Animal number (n) Termination of treatment (HCMV infected mice [4]; [6])	Animal number (n) Termination of treatment (HCMV infected mice [4]; [7])	also measured
20(R)-ginsenoside Rg3 8-N-butyrate [Ginsenoside rg3 derivatives]	higher than those of the model group	superior to that of the positive drug control group	29.32 ± 4.09 pg/mL	27.99 ± 5.38 pg/mL	28.62 ± 4.21 pg/mL	obvious weight increasing effect	superior to that of the positive drug control group	0.19 ± 0.11 OD value	0.17 ± 0.08 OD value	0.18 ± 0.07 OD value	mild toxic symptom, less death and good weight growth	27.7 ± 1.84 g	26.4 ± 0.18 g	27.1 ± 0.49 g	9	6	7	
CC(C)=CCC[C@](C)(O)[C@H]1CC[C@]2(C)[C@@H]1[C@H](O)C[C@@H]1[C@@]3(C)CC[C@H](O[C@@H]4O[C@H](CO)[C@@H](O)[C@H](O)[C@H]4O[C@@H]4O[C@H](CO)[C@@H](O)[C@H](O)[C@H]4O)C(C)(C)[C@@H]3CC[C@]12C [Ginsenoside rg3, 20(R)-ginsenoside Rg3]	higher than those of the model group	superior to that of the positive drug control group	28.64 ± 4.66 pg/mL	27.02 ± 6.39 pg/mL	27.19 ± 5.60 pg/mL	obvious weight increasing effect	superior to that of the positive drug control group	0.18 ± 0.03 OD value	0.15 ± 0.08 OD value	0.16 ± 0.05 OD value	mild toxic symptom, less death and good weight growth	26.6 ± 1.83 g	25.1 ± 0.11 g	25.8 ± 0.54 g	8	6	6	Spleen indexes and thymus gland indexes compared with the model group (in words) (HCMV infected mice [2]; HCMV infected mice): significantly different from those of the model group; Spleen indexes (HCMV infected mice [2]; [8]): 0.061 ± 0.021; Thymus gland indexes (HCMV infected mice [2]; [8]): 0.031 ± 0.009; Spleen indexes (HCMV infected mice [2]; [9]): 0.056 ± 0.045; Thymus gland indexes (HCMV infected mice [2]; [9]): 0.027 ± 0.011; Spleen indexes (HCMV infected mice [2]; [10]): 0.057 ± 0.013; Thymus gland indexes (HCMV infected mice [2]; [10]): 0.029 ± 0.021
Nc1nc(O)c2ncn(COC(CO)CO)c2n1 [Positive drug control group, ganciclovir, reference compound]																		IL-2 concentration (HCMV infected mice [1]; ganciclovir 45.5 mg/kg/d): 24.54 ± 2.66 pg/mL; Hemolysin (OD value) (HCMV infected mice [3]; ganciclovir 45.5 mg/kg/d): 0.11 ± 0.04 OD value; Average animal weight (g) Termination of treatment (HCMV infected mice [4]; ganciclovir 45.5 mg/kg/d): 26.9 ± 3.97 g; Survival number, weight growth and symptom expression compared with the test drug groups (in words) (HCMV infected mice [4]; ganciclovir 45.5 mg/kg/d): totally approximate to those of the large-dosage groups; Animal number (n) Termination of treatment (HCMV infected mice [4]; ganciclovir 45.5 mg/kg/d): 8
